Here are results for 18 compounds from patent US20230148602A1, “BENZAMIDE COMPOUND AND HERBICIDE” (Nippon Soda Co., Ltd., priority 2020, published 2023).

Series [1] concerns Alopecurus myosuroides. The series can be described thus: Test Example 1 foliage treatment, weed killing rate. It counts as in vivo. Conditions: foliar, 504 h, 250 g/ha active ingredient, foliage spray, after 3 weeks. How it is done: (§1) POA allylphenyl ether (4.1 parts by weight), POE-POP glycol (1 part by weight), POE sorbitan laurate (0.8 parts by weight), glycerin (2.6 parts by weight), dimethylformamide (65.9 parts by weight), N-methylpyrrolidone (5.1 parts by weight), cyclohexanone (15.4 parts by weight), and aromatic hydrocarbons (5.1 parts by weight) were mixed to obtain an emulsion.
(§2) The compound of the present invention (4 mg) was dissolved in this emulsion (100 μt) to obtain a test emulsion. POA means “polyoxyalkylene”, POE means “polyoxyethylene”, and POP means “polyoxypropylene”.
(§3) In a 150 cm^2 pot filled with soil, seeds of Digitaria ciliaris, Amaranthus retroflexus, Alopecurus myosuroides and Matricaria chamomilla were respectively sown and covered lightly with soil. Thereafter, they were grown in a greenhouse. When each plant grew to a plant height of 2 to 5 cm, the above test emulsion was diluted with water and sprayed on the foliage with a small sprayer at a spray water volume of 250 L per hectare (the amount of active ingredient of 250 g per hectare).
(§4) After 3 weeks, the above ground weights of weeds in the untreated and treated areas were measured for each plant, and the weed killing rate was calculated by the following calculation formula.
(§5) Weed killing rate (%)=[{(above ground weight of weeds in untreated area)−(above ground weight of weeds in treated area)}/(above ground weight of weeds in untreated area)]×100

For a further series, the system named is Amaranthus retroflexus. The series is described as above. It counts as in vivo. Conditions: foliar, 504 h, 250 g/ha active ingredient, foliage spray, after 3 weeks. How it is done: as §1, §2, §3, §4, §5
Another series concerns Matricaria chamomilla. The description is as above. The series is classed as in vivo. Conditions: foliar, 504 h, 250 g/ha active ingredient, foliage spray, after 3 weeks. The protocol:
as §1, §2, §3, §4, §5

Another series deals with Digitaria ciliaris. The description is as above. It counts as in vivo. The note with it: foliar, 504 h, 250 g/ha active ingredient, foliage spray, after 3 weeks. How it is done:
as §1, §2, §3, §4, §5

Series [2] has as its system Alopecurus myosuroides. The series can be described thus: Test Example 2 foliage treatment, weed killing rate. The series is classed as in vivo. Conditions: foliage spray, after 4 weeks. How it is done:
(§6) In a 150 cm^2 pot filled with soil, seeds of Alopecurus myosuroides, Setaria faberi and Zea mays were sown and covered lightly with soil. Thereafter, they were grown in a greenhouse. When Alopecurus myosuroides and Setaria faberi grew to a plant height of 2 to 5 cm and Zea mays grew to 30 to 35 cm, the test emulsion obtained in Test Example 1 was diluted with water and sprayed on the foliage with a small sprayer at a spray water volume of 250 L per hectare (the amount of active ingredient of 250 g, 63 g, or 16 g per hectare). Also for the compound represented by the formula (B) (Compound No. B-1), a test emulsion was obtained in the same manner as in Test Example 1, and Test Example 2 was carried out using the emulsion. After 4 weeks, the above ground weights of weeds in the untreated and treated areas were measured for each plant, and the weed killing rate was calculated by the following calculation formula. Weed killing rate (%)=[{(above ground weight of weeds in untreated area)−(above ground weight of weeds in treated area)}/(above ground weight of weeds in untreated area)]×100

The next series deals with Setaria faberi. The series is described as above. The series is classed as in vivo. The note with it: foliage spray, after 4 weeks. How it is done:
as §6

The subject of another series is Zea mays. The series can be described thus: Test Example 2 foliage treatment, weed killing rate on maize (phytotoxicity). Conditions: foliage spray, after 4 weeks, crop (phytotoxicity to maize). It counts as in vivo. How it is done:
as §6

Usually pest or weed control stands for how far the test organism was held down. A high value points to strong suppression. What is called melting point is the temperature, or range, at which the solid turns liquid.

Consider `Cc1c(NC(=O)C(=O)N(C)C)c(Br)cc(F)c1C(=O)Nc1nnnn1C` [A-1, N^1-(6-bromo-4-fluoro-2-methyl-3-((1-methyl-1H-tetrazol-5-yl)carbamoyl)phenyl)-N^2,N^2-dimethyloxalamide], for which the pest or weed control at 250 g/ha with Alopecurus myosuroides [1], in the series with Amaranthus retroflexus, with Matricaria chamomilla and with Digitaria ciliaris was 100% in each case.

Take `CCN(C)C(=O)C(=O)Nc1c(Br)cc(F)c(C(=O)Nc2nnnn2C)c1C` [A-2]: the melting point fell in the range of 191 to 194 °C. This compound also returned a pest or weed control at 250 g/ha in the series on Alopecurus myosuroides [1] of 100%. For the same compound, the pest or weed control at 250 g/ha in the series with Amaranthus retroflexus came to 100%. This compound showed a pest or weed control at 250 g/ha in the series on Matricaria chamomilla of 100%. Besides, the pest or weed control at 250 g/ha with Digitaria ciliaris is 100%.

For the compound `Cc1c(NC(=O)C(=O)N(C)CC(F)(F)F)c(Br)cc(F)c1C(=O)Nc1nnnn1C` [A-3], the “Weed killing rate Alopecurus myosuroides” value was 80% with Alopecurus myosuroides [2] (16 g/ha active ingredient), 100% with Alopecurus myosuroides [2] (63 g/ha active ingredient) and 100% in the series with Alopecurus myosuroides [2] (250 g/ha active ingredient). The “Weed killing rate Setaria faberi” value with Setaria faberi (16 g/ha active ingredient) is 50%; with Setaria faberi (63 g/ha active ingredient), 100%; with Setaria faberi (250 g/ha active ingredient), 100%. The figures for the “Weed killing rate Zea mays” value in the series on Zea mays (16 g/ha active ingredient), in the series with Zea mays (63 g/ha active ingredient) and with Zea mays (250 g/ha active ingredient) were 0%, 0% and 30%, respectively. Also, the pest or weed control at 250 g/ha with Alopecurus myosuroides [1], in the series on Amaranthus retroflexus, in the series with Matricaria chamomilla and with Digitaria ciliaris was 100% each time.

`COCCN(C)C(=O)C(=O)Nc1c(Br)cc(F)c(C(=O)Nc2nnnn2C)c1C` [A-5] gave a melting point of 179 to 181 °C. Also, in the series on Alopecurus myosuroides [1], the pest or weed control at 250 g/ha was found to be 70%. The compound further showed a pest or weed control at 250 g/ha with Amaranthus retroflexus of 80%. This compound also showed a pest or weed control at 250 g/ha in the series with Digitaria ciliaris of 80%.

`Cc1c(NC(=O)C(=O)N(C)C2CC2)c(Br)cc(F)c1C(=O)Nc1nnnn1C` [A-6] showed a melting point of 188 to 192 °C. The compound further showed a pest or weed control at 250 g/ha with Alopecurus myosuroides [1] of 90%. The compound further gave a pest or weed control at 250 g/ha in the series on Amaranthus retroflexus of 100%. This compound also yielded a pest or weed control at 250 g/ha with Matricaria chamomilla of 100%. The same compound had a pest or weed control at 250 g/ha in the series on Digitaria ciliaris of 80%.

In turn, `Cc1c(NC(=O)C(=O)N2CCOCC2)c(Br)cc(F)c1C(=O)Nc1nnnn1C` [A-7] returned a melting point of 244 to 246 °C. The pest or weed control at 250 g/ha in the series on Amaranthus retroflexus came to 70%.

`CCN(C)C(=O)C(=O)Nc1c(Br)cc(F)c(C(=O)Nc2nnnn2C)c1Cl` [A-8] registered a melting point of 233 to 235 °C. In the series on Alopecurus myosuroides [1], this compound registered a pest or weed control at 250 g/ha of 100%. This compound had a pest or weed control at 250 g/ha with Amaranthus retroflexus of 100%. Moreover, in the series with Matricaria chamomilla, the pest or weed control at 250 g/ha was 100%. Besides, the pest or weed control at 250 g/ha with Digitaria ciliaris was found to be 70%.

As for `CCN(CC)C(=O)C(=O)Nc1c(Br)cc(F)c(C(=O)Nc2nnnn2C)c1Cl` [A-9], the melting point lay in the range of 220 to 223 °C. In the series with Alopecurus myosuroides [1], this compound displayed a pest or weed control at 250 g/ha of 100%. The pest or weed control at 250 g/ha with Amaranthus retroflexus worked out at 80%. Further, the pest or weed control at 250 g/ha in the series with Matricaria chamomilla came to 100%. The compound further returned a pest or weed control at 250 g/ha in the series with Digitaria ciliaris of 70%.

Regarding `CN(CC(F)(F)F)C(=O)C(=O)Nc1c(Br)cc(F)c(C(=O)Nc2nnnn2C)c1Cl` [A-10], the melting point was 243 to 246 °C. In the series with Alopecurus myosuroides [1], this compound yielded a pest or weed control at 250 g/ha of 70%. Moreover, the pest or weed control at 250 g/ha in the series with Amaranthus retroflexus is 100%. Besides, the pest or weed control at 250 g/ha in the series with Matricaria chamomilla came to 100%.

`Cc1c(C(=O)Nc2nnnn2C)ccc(Br)c1NC(=O)C(=O)N(C)CC(F)(F)F` [A-11]: the melting point lay within 204 to 206 °C. In the series with Alopecurus myosuroides [1], this compound returned a pest or weed control at 250 g/ha of 100%. The pest or weed control at 250 g/ha in the series on Amaranthus retroflexus is 100%. Moreover, the pest or weed control at 250 g/ha in the series on Matricaria chamomilla amounted to 100%. Besides, the pest or weed control at 250 g/ha in the series with Digitaria ciliaris stood at 100%.

The compound `Cc1c(NC(=O)C(=O)N(C)CC(F)(F)F)cccc1C(=O)Nc1nnnn1C` [A-12] gave a melting point of 104 to 107 °C.

For the compound `CCN(CC)C(=O)C(=O)Nc1c(Br)cc(F)c(C(=O)Nc2nnnn2C)c1C` [A-13], the melting point fell in the range of 198 to 201 °C. Also, the pest or weed control at 250 g/ha with Alopecurus myosuroides [1] stood at 100%. Also, the pest or weed control at 250 g/ha in the series on Amaranthus retroflexus was determined as 100%. The same compound displayed a pest or weed control at 250 g/ha in the series on Matricaria chamomilla of 100%. The same compound gave a pest or weed control at 250 g/ha in the series with Digitaria ciliaris of 90%.

Take `Cc1c(NC(=O)C(=O)N2CCCC2)c(Br)cc(F)c1C(=O)Nc1nnnn1C` [A-14]: the melting point lay in the range of 275 to 278 °C. Moreover, in the series on Amaranthus retroflexus, the pest or weed control at 250 g/ha worked out at 80%.

`CCOC(=O)C(=O)Nc1c(Br)cc(F)c(C(=O)Nc2nnnn2C)c1C` [A-15] came in with a melting point of 154 to 157 °C.

Take `CC(=O)C(=O)Nc1c(Br)cc(F)c(C(=O)Nc2nnnn2C)c1C` [A-16]: the melting point lay in the range of 221 to 223 °C. In the series on Amaranthus retroflexus, this compound came in with a pest or weed control at 250 g/ha of 70%. The pest or weed control at 250 g/ha in the series with Matricaria chamomilla was 90%.

Consider `CON(C)C(=O)C(=O)Nc1c(Br)cc(F)c(C(=O)Nc2nnnn2C)c1C` [A-17], for which the melting point is 212 to 215 °C.

`Cc1c(C(=O)Nc2nnnn2C)ccc(C(F)(F)F)c1NC(=O)C(=O)N(C)CC(F)(F)F` [A-18] showed a melting point of 190 to 193 °C.

With `Cc1c(NC(=O)N(C)CC(F)(F)F)c(Br)cc(F)c1C(=O)Nc1nnnn1C` [B-1, reference compound], the “Weed killing rate Alopecurus myosuroides” value is recorded as 40% in the series on Alopecurus myosuroides [2] (16 g/ha active ingredient), 50% in the series on Alopecurus myosuroides [2] (63 g/ha active ingredient) and 90% in the series on Alopecurus myosuroides [2] (250 g/ha active ingredient). Besides, the results for the “Weed killing rate Setaria faberi” value in the series on Setaria faberi (16 g/ha active ingredient), in the series with Setaria faberi (63 g/ha active ingredient) and in the series on Setaria faberi (250 g/ha active ingredient) were 20%, 50% and 100%, respectively. The “Weed killing rate Zea mays” value with Zea mays (16 g/ha active ingredient) came out at 20%; in the series with Zea mays (63 g/ha active ingredient), 30%; in the series with Zea mays (250 g/ha active ingredient), 90%.
